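Protocol summary: plate cells (96-well), add compound at 5 concentrations, incubate 48 h, interpolate endpoints linearly. Here, GI50 denotes the concentration required for 50% inhibition of growth.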 The source made the active and inactive calls. Cut-off read from the data, not from the text of the source: active = GI50 up to about 1.1 µM and inactive = higher.
Legend:
Assay in all cases: NCI anticancer screen, dose series, 48 h
HT-29 = tested on: HT-29
A498 = tested on: A498
TK-10 = tested on: TK-10
UACC-62 = tested on: UACC-62
MOLT-4 = tested on: MOLT-4
SK-MEL-5 = tested on: SK-MEL-5
RXF 393 = tested on: RXF 393
PC-3 = tested on: PC-3
SF-539 = tested on: SF-539
SK-MEL-28 = tested on: SK-MEL-28
SF-295 = tested on: SF-295
KM12 = tested on: KM12
SNB-19 = tested on: SNB-19
SNB-75 = tested on: SNB-75
ACHN = tested on: ACHN
MDA-N = tested on: MDA-N
M14 = tested on: M14
K562 = tested on: K562
786-0 = tested on: 786-0
HL-60 = tested on: HL-60

| SMILES | GI50 (HT-29) | GI50 (A498) | GI50 (TK-10) | GI50 (UACC-62) | GI50 (MOLT-4) | GI50 (SK-MEL-5) | GI50 (RXF 393) | GI50 (PC-3) | GI50 (SF-539) | GI50 (SK-MEL-28) | GI50 (SF-295) | GI50 (KM12) | GI50 (SNB-19) | GI50 (SNB-75) | GI50 (ACHN) | GI50 (MDA-N) | GI50 (M14) | GI50 (K562) | GI50 (786-0) | GI50 (HL-60) |
| --- | --- | --- | --- | --- | --- | --- | --- | --- | --- | --- | --- | --- | --- | --- | --- | --- | --- | --- | --- | --- |
| CCOC(=O)c1nc2ccccc2nc1Nc1ccc(F)cc1 | > 100 µM (inactive) | 20.9 µM (inactive) | 30.6 µM (inactive) | > 100 µM (inactive) | > 100 µM (inactive) | > 100 µM (inactive) | 11.9 µM (inactive) | > 86.9 µM (inactive) | 14.2 µM (inactive) | > 100 µM (inactive) | 12.9 µM (inactive) | > 100 µM (inactive) | 12.1 µM (inactive) | 3.52 µM (inactive) | 27.5 µM (inactive) | > 100 µM (inactive) | > 100 µM (inactive) | > 100 µM (inactive) | 17.9 µM (inactive) | > 100 µM (inactive) |
| CN1CCC(CNC(=O)CCCCCCCCC(=O)NCC2(c3ccccc3)CCN(C)CC2)(c2ccccc2)CC1 | 45.5 µM (inactive) | > 100 µM (inactive) | > 100 µM (inactive) | > 100 µM (inactive) | > 100 µM (inactive) | > 100 µM (inactive) | > 100 µM (inactive) | > 100 µM (inactive) | 15 µM (inactive) | > 100 µM (inactive) | > 100 µM (inactive) | > 100 µM (inactive) | > 100 µM (inactive) | 44.2 µM (inactive) | > 100 µM (inactive) | > 100 µM (inactive) | 57.3 µM (inactive) | 77.1 µM (inactive) | 52.4 µM (inactive) | > 100 µM (inactive) |
| COc1cc(CNC(=O)CCCCCCCC/C=C/Br)ccc1O | > 10 µM (inactive) | > 10 µM (inactive) | > 10 µM (inactive) | > 10 µM (inactive) | > 10 µM (inactive) | > 10 µM (inactive) | > 10 µM (inactive) | > 10 µM (inactive) | > 10 µM (inactive) | > 10 µM (inactive) | > 10 µM (inactive) | > 10 µM (inactive) | > 10 µM (inactive) | > 10 µM (inactive) | > 10 µM (inactive) | > 10 µM (inactive) | > 10 µM (inactive) | > 10 µM (inactive) | > 10 µM (inactive) | > 10 µM (inactive) |
| Fc1cc(-c2cc(-c3ccccc3)no2)c(Cl)cc1Cl | 15.8 µM (inactive) | > 33 µM (inactive) | > 34.7 µM (inactive) | 43.2 µM (inactive) | 12.4 µM (inactive) | 16.4 µM (inactive) | 7.11 µM (inactive) | 13.7 µM (inactive) | > 12.4 µM (inactive) | > 29.8 µM (inactive) | 22.5 µM (inactive) | 16.2 µM (inactive) | > 40.6 µM (inactive) | > 31.6 µM (inactive) | > 35.2 µM (inactive) | 16.1 µM (inactive) | 23.1 µM (inactive) | 29.4 µM (inactive) | 15.5 µM (inactive) | 19.7 µM (inactive) |
| COC1/C=C/C(C)C(C(C)C(OC)C(C)CCC(=O)C(C)C(CCC(=O)O)OC)OC(=O)/C=C/C=C(\C)CC(OC)CC2=CC(=O)O[C@@H](C(C)C(OC)CC(OC)/C=C/C(C)C(OC)C1)[C@H]2O (stereo not given in full) | 0.284 µM (active) | 0.123 µM (active) | 1.65 µM (inactive) | 0.787 µM (active) | 0.467 µM (active) | 0.296 µM (active) | 0.583 µM (active) | 0.454 µM (active) | 0.292 µM (active) | 0.792 µM (active) | 0.859 µM (active) | 2.19 µM (inactive) | 0.679 µM (active) | 0.16 µM (active) | 0.74 µM (active) | 0.6 µM (active) | 0.63 µM (active) | 1.92 µM (inactive) | 0.578 µM (active) | 0.185 µM (active) |

— ChEMBL document CHEMBL1201862, “PubChem BioAssay data set” (2004)
